Here are results for 52 molecules from US11168087B2, “Substituted imidazo[1,2-b]pyridazines, substituted imidazo[1,5-b]pyridazines, related compounds, and their use in the treatment of medical disorders” (BIAL—R&D Investments, S.A., priority 2016, dated 2021).

In this test the target is T1, glucocerebrosidase (Gcase) (Homo sapiens, UniProt P04062).
T1 construct: micellar solution containing 10 nM GCase and 100 nM saposin C
T1 sequence (P04062 40-536): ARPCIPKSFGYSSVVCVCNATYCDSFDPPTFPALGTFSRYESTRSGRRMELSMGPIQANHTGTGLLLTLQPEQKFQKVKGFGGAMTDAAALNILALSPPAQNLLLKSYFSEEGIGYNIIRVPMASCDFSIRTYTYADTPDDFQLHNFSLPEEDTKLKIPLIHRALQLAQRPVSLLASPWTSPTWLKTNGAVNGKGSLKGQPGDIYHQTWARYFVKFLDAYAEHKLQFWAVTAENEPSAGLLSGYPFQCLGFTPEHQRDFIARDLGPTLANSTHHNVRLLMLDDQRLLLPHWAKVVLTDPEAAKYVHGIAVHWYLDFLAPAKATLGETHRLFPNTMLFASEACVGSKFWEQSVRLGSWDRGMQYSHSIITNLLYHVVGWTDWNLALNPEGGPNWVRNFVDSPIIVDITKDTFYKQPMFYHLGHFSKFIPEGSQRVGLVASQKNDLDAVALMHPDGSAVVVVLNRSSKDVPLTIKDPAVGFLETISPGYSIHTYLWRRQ
The test can be described thus: Glucocerebrosidase (Gcase) activation assay, 4-methylumbelliferyl-beta-D-glucopyranoside substrate, with saposin C. It counts as biochemical. The settings on record: 0.25 h; for activation at 0.1 µM: read-out: Percent Gcase Activation 0.1 μM Test Compound; for activation at 1 µM: read-out: Percent Gcase Activation 1 μM Test Compound. How it is done:
The ability of exemplary compounds to activate glucocerebrosidase (Gcase) was measured.
A 484 μL aliquot of a 1.0 mg/mL solution of phosphatidylserine (PS) (Sigma P7769) in chloroform was evaporated under a stream of nitrogen for 1 hour. The lipid film was dissolved over 4 minutes of vigorous vortexing in 40 mL of 176 mM K2HPO4/50 mM citric acid (pH 4.7) containing 7.5 μL of triton X-100, resulting in a mixed micellar preparation with a composition of 0.32 mM triton and 0.37 mol % PS. 4-Methylumbelliferyl-beta-D-glucopyranoside (ACROS-337025000) was dissolved in the micellar solution to a final concentration of 2 mM for use as the reaction substrate.
Test compounds were diluted to the desired concentrations with dimethylsulfoxide (DMSO) from 10 mM stocks, and 0.41 μL of the DMSO compound mixture was added to 100 μL of micellar solution containing 10 nM GCase and 100 nM saposin C (Enzo ALX-201-262-C050). Pre-incubation was allowed to occur for 30 minutes at room temperature, after which the reaction was initiated by combining 25 μL of substrate solution with 25 μL of compound/GCase/saposin mixture. The reaction proceeded for 15 minutes at room temperature and was stopped by adding 150 μL of 1M glycine, pH 12.5. The endpoint of the reaction was monitored by measuring fluorescence intensity (excitation: 365 nm; emission: 440 nm) on a SpectraMax i3 instrument (Molecular Devices). Test compounds were screened at 1.0 and 0.1 μM final concentration, and subsequent 8-point dose response curves were obtained using 3-fold dilutions from a maximum final concentration of 5 μM.
The symbol “+” indicates less than 5% Gcase activation; the symbol “++” indicates Gcase activation in the range of 5% up to 20%; and the symbol “+++” indicates Gcase activation greater than 20%.

SMILES strings stand for the structures.

Regarding `Cc1cc2ncc(C(=O)NC3CCCc4ccccc43)n2nc1Cl` (centres unmarked), the activation at 0.1 µM is below 5% and the activation at 1 µM lay within 5 to 20%.

Take `CCC(NC(=O)c1cnc2cc(C)c(Cl)nn12)c1ccccc1` (centres unmarked): the activation at 0.1 µM was below 5% and the activation at 1 µM fell in the range of 5 to 20%.

As to `O=C(Nc1ccc2c(c1)CCC2)c1cnc2ccc(Cl)nn12`, the activation at 0.1 µM is below 5% and the activation at 1 µM fell in the range of 5 to 20%.

Consider `O=C(NC1CCCc2ccccc21)c1cnc2ccc(Cl)nn12` (centres unmarked), for which the activation at 0.1 µM was below 5% and the activation at 1 µM lay in the range of 5 to 20%.

For `CCC(NC(=O)c1cnc2ccc(Cl)nn12)c1ccccc1` (centres unmarked), the activation at 0.1 µM is below 5% and the activation at 1 µM is below 5%.

On to `CCCCCO[C@H]1CC[C@H](NC(=O)c2cnc3ccc(Cl)nn23)CC1`, for which the activation at 0.1 µM was below 5% and the activation at 1 µM is 5 to 20%.

Turning to `Cc1cc(C)c2ncc(C(=O)Nc3ccc(-c4cocn4)cc3)n2n1`, the activation at 0.1 µM was below 5% and the activation at 1 µM is above 20%.

As for `Cc1cc(C)c2ncc(C(=O)Nc3ccc4c(c3)CCC4)n2n1`, the activation at 0.1 µM fell in the range of 5 to 20% and the activation at 1 µM was above 20%.

Turning to `Cc1cc(C)c2ncc(C(=O)NC3CCCc4ccccc43)n2n1` (centres unmarked), the activation at 0.1 µM was 5 to 20% and the activation at 1 µM was above 20%.

As to `CCC(NC(=O)c1cnc2c(C)cc(C)nn12)c1ccccc1` (centres unmarked), the activation at 0.1 µM was below 5% and the activation at 1 µM was above 20%.

`CCCCCO[C@H]1CC[C@H](NC(=O)c2cnc3c(C)cc(C)nn23)CC1`: the activation at 0.1 µM fell in the range of 5 to 20% and the activation at 1 µM is above 20%.

On to `Cc1cc(C)c2ncc(C(=O)NC3(C)CCCc4ccccc43)n2n1` (centres unmarked), for which the activation at 0.1 µM was in the range of 5 to 20% and the activation at 1 µM is above 20%.

As to `C#Cc1ccc(NC(=O)c2cnc3c(C)cc(C)nn23)cc1`, the activation at 0.1 µM fell in the range of 5 to 20% and the activation at 1 µM was above 20%.

`CCCCCCOC1CCC(NC(=O)c2cnc3c(C)cc(Cl)nn23)CC1` (centres unmarked): the activation at 0.1 µM is 5 to 20% and the activation at 1 µM is above 20%.

With `Cc1cc(Cl)nn2c(C(=O)Nc3ccc4c(c3)CCC4)cnc12`, the activation at 0.1 µM fell in the range of 5 to 20% and the activation at 1 µM is above 20%.

Regarding `C#Cc1ccc(NC(=O)c2cnc3ccc(Cl)nn23)cc1`, the activation at 0.1 µM was in the range of 5 to 20% and the activation at 1 µM lay within 5 to 20%.

Turning to `C#Cc1ccc(NC(=O)c2ncc3c(C)cc(C)nn23)cc1`, the activation at 0.1 µM is below 5% and the activation at 1 µM was above 20%.

In the case of `CCC(NC(=O)c1ncc2c(C)cc(C)nn12)c1ccccc1` (centres unmarked), the activation at 0.1 µM is below 5% and the activation at 1 µM is above 20%.

`Cc1cc(C)c2cnc(C(=O)NC3CCCc4ccccc43)n2n1` (centres unmarked): the activation at 0.1 µM lay within 5 to 20% and the activation at 1 µM was above 20%.

As for `Cc1cc(C)c2cnc(C(=O)Nc3ccc4c(c3)CCC4)n2n1`, the activation at 0.1 µM is above 20% and the activation at 1 µM was above 20%.

Regarding `Cc1cc(C)c2cnc(C(=O)Nc3ccc(-c4cocn4)cc3)n2n1`, the activation at 0.1 µM was below 5% and the activation at 1 µM was above 20%.

Consider `Cc1cc(C)c2ncc(C(=O)N[C@@H](C)C3CC3)n2n1`, for which the activation at 0.1 µM was below 5% and the activation at 1 µM lay within 5 to 20%.

Regarding `Cc1cc(C)c2ncc(C(=O)NC(C)(C)C3CC3)n2n1`, the activation at 0.1 µM was 5 to 20% and the activation at 1 µM is above 20%.

For `Cc1cc(C)c2ncc(C(=O)NC(C3CC3)C(F)(F)F)n2n1` (centres unmarked), the activation at 0.1 µM is below 5% and the activation at 1 µM is above 20%.

In the case of `Cc1cc(-c2ccc(F)cc2)nn2c(C(=O)NC(C)(C)C3CC3)cnc12`, the activation at 0.1 µM is 5 to 20% and the activation at 1 µM is above 20%.

For `Cc1cc(-c2ccc(F)cc2)nn2c(C(=O)N[C@@H](C)C3CC3)cnc12`, the activation at 0.1 µM is 5 to 20% and the activation at 1 µM is above 20%.

With `Cc1cc(-c2cccnc2)nn2c(C(=O)NC(C3CC3)C(F)(F)F)cnc12` (centres unmarked), the activation at 0.1 µM is below 5% and the activation at 1 µM is above 20%.

As to `Cc1cc(-c2cccc(F)c2)nn2c(C(=O)NC(C)(C)C3CC3)cnc12`, the activation at 0.1 µM was above 20% and the activation at 1 µM is above 20%.

On to `Cc1cc(-c2ccc(F)cc2C#N)nn2c(C(=O)N[C@@H](C)C3CC3)cnc12`, for which the activation at 0.1 µM is 5 to 20% and the activation at 1 µM was above 20%.

On to `Cc1cc(C)c2cnc(C(=O)N[C@@H](C)C3CC3)n2n1`, for which the activation at 0.1 µM was below 5% and the activation at 1 µM was 5 to 20%.

For the molecule `Cc1cc(C)c2cnc(C(=O)NC(C)(C)C3CC3)n2n1`, the activation at 0.1 µM is below 5% and the activation at 1 µM was above 20%.

In the case of `Cc1cc(C)c2cnc(C(=O)NC(C3CC3)C(F)(F)F)n2n1` (centres unmarked), the activation at 0.1 µM was below 5% and the activation at 1 µM is above 20%.

For the molecule `Cc1cc(-c2ccc(F)cc2)nn2c(C(=O)NC(C)(C)C3CC3)ncc12`, the activation at 0.1 µM is above 20% and the activation at 1 µM is above 20%.

Take `Cc1cc(-c2ccc(F)cc2)nn2c(C(=O)N[C@@H](C)C3CC3)ncc12`: the activation at 0.1 µM is 5 to 20% and the activation at 1 µM is above 20%.

As to `Cc1cc(-c2ccc(F)cc2)nn2c(C(=O)NC(C3CC3)C(F)(F)F)ncc12` (centres unmarked), the activation at 0.1 µM is above 20% and the activation at 1 µM was above 20%.

On to `Cc1cc(-c2cccc(F)c2)nn2c(C(=O)NC(C)(C)C3CC3)ncc12`, for which the activation at 0.1 µM was above 20% and the activation at 1 µM was above 20%.

`Cc1cc(-c2cccc(F)c2)nn2c(C(=O)NC(C)C(F)(F)F)ncc12` (centres unmarked): the activation at 0.1 µM lay in the range of 5 to 20% and the activation at 1 µM is above 20%.

Regarding `Cc1cc(-c2ccc(F)cc2)nn2c(C(=O)NC(C)C(F)(F)F)ncc12` (centres unmarked), the activation at 0.1 µM fell in the range of 5 to 20% and the activation at 1 µM is above 20%.

For `Cc1cc(-c2ccc(F)cc2)nn2c(C(=O)N[C@@H](C)C3CC3)nnc12`, the activation at 0.1 µM is below 5% and the activation at 1 µM was below 5%.

Consider `Cc1cc(-c2cccnc2)nc2c(C(=O)NC(C3CC3)C(F)(F)F)nsc12` (centres unmarked), for which the activation at 0.1 µM was below 5% and the activation at 1 µM lay within 5 to 20%.

Regarding `COc1cccc(-c2cc(C)c3snc(C(=O)N[C@@H](C)C4CC4)c3n2)n1`, the activation at 0.1 µM is below 5% and the activation at 1 µM is 5 to 20%.

For `Cc1cc(-c2ccccn2)nc2c(C(=O)NC(C3CC3)C(F)(F)F)nsc12` (centres unmarked), the activation at 0.1 µM was below 5% and the activation at 1 µM was in the range of 5 to 20%.

As for `Cc1cc(-c2cccc(C(N)=O)c2)nc2c(C(=O)NC(C3CC3)C(F)(F)F)nsc12` (centres unmarked), the activation at 0.1 µM was below 5% and the activation at 1 µM was 5 to 20%.

With `Cc1cc(-c2cccc3ocnc23)nc2c(C(=O)NC(C3CC3)C(F)(F)F)nsc12` (centres unmarked), the activation at 0.1 µM was below 5% and the activation at 1 µM lay within 5 to 20%.

`Cc1cc(C)c2scc(C(=O)NC(C)(C)C3CC3)c2n1`: the activation at 0.1 µM was above 20% and the activation at 1 µM is above 20%.

Regarding `Cc1cc(C)c2scc(C(=O)NC(C3CC3)C(F)(F)F)c2n1` (centres unmarked), the activation at 0.1 µM was above 20% and the activation at 1 µM was above 20%.

In the case of `Cc1cc(-c2cccnc2)nc2c(C(=O)NC(C3CC3)C(F)(F)F)csc12` (centres unmarked), the activation at 0.1 µM is above 20% and the activation at 1 µM is above 20%.

As for `Cc1cc(-c2cccnc2)nc2c(C(=O)NC(C)C3CC3)csc12` (centres unmarked), the activation at 0.1 µM was above 20% and the activation at 1 µM is above 20%.

Turning to `Cc1cc(-c2cccc(C(N)=O)c2)nc2c(C(=O)NC(C3CC3)C(F)(F)F)csc12` (centres unmarked), the activation at 0.1 µM is above 20% and the activation at 1 µM is above 20%.

On to `Cc1cc(-c2cccc(C#N)c2)nn2c(C(=O)NC(C3CC3)C(F)(F)F)cnc12` (centres unmarked), for which the activation at 0.1 µM was above 20% and the activation at 1 µM is above 20%.

Regarding `Cc1cc(N2CCC(F)(F)C2)nn2c(C(=O)NC(C3CC3)C(F)(F)F)cnc12` (centres unmarked), the activation at 0.1 µM is above 20% and the activation at 1 µM was above 20%.

In the case of `Cc1cc(-c2occc2C#N)nn2c(C(=O)NC(C3CC3)C(F)(F)F)cnc12` (centres unmarked), the activation at 0.1 µM was above 20% and the activation at 1 µM is above 20%.
